Results as given in patent publication US20070032417A1, “Peptides and therapeutic uses thereof” (priority 2002, published 2007).
Read-outs that look alike come from different tables or passages of the source. *1 amine or outer side, *2 acyl side, *3 side chain or, on linkers, in order; H or OH if unused. Where a SMILES comes first, the peptide text is derived from it. Bridges are numbered along the chain shown (N, C = ends). [ ]: non-standard residue; d: D form. NH(CH2)5NH = C(CCN[*:1])CCN[*:2]; Cit = NC(=O)NCCC[C@H](N)C(=O)O; X1 = O=C(CN[*:1])NCCN[*:2]

How the values were obtained:
[1] = molecular target: T1, GST tagged Bcl w delta C29 protein (Homo sapiens, UniProt Q92843); assay: Alphascreen competition with Bim26mer, GST detection system; format: binding; conditions: for decrease in binding affinity / change in binding affinity, in words: Bcl-w ΔC29, compared to the linear 16-mer
T1 sequence (Q92843 1-164 limits assumed): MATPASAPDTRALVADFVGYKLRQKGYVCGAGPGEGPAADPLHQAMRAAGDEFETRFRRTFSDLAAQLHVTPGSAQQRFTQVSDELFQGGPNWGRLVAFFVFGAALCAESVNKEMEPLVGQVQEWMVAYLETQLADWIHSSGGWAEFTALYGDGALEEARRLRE

Bcl-2 ΔC22 = Bcl-2 ΔC22 (Homo sapiens, UniProt P10415); assay: Competition assay using biotinylated Bim-BH3 peptide, Bcl-2 ΔC22; format: binding; conditions: for IC50: competition with biotinylated Bim-BH3 peptide
Text: The results are shown below:

[2] = molecular target: T2, 6-His tagged Bcl w delta C10 protein (Homo sapiens, UniProt Q92843); assay: Alphascreen competition with Bim26mer, Hexa-His detection system; format: binding; conditions: competition with biotinylated Bim-BH3 peptide; read-out: IC50 (nM) Bcl-w ΔC10
T2 sequence (Q92843 1-183 limits assumed): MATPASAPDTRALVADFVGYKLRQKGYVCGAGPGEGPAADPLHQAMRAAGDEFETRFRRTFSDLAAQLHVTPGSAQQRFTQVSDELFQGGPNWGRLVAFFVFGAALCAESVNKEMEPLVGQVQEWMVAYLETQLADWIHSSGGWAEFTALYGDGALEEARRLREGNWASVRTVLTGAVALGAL
Text: Alphascreen (Amplified Luminsecent Proximity Homogenous Assay) is a bead based technology which measures a biological interaction between molecules. The assay consists of two hydrogel coated beads which, when bought into close proximity by a binding interaction, allow a transfer of singlet oxygen from a donor bead to an acceptor bead.
Upon binding a photosensitiser in the donor bead converts ambient oxygen to a more excited singlet state. This singlet oxygen then diffuses across to react with a chemiluminescer in the acceptor bead. Fluorophores within the same bead are activated, resulting in the emission of light.
Screening of the conformationally constrained peptides was performed using the Hexa-His detection system. Non biotinylated peptides dissolved in DMSO were titrated into the assay which consisted of 6-His tagged Bcl w delta C10 protein (24 nM Final concentration) and Biotinylated Bim BH3-26 peptide, Biotin-[…] [SEQ ID NO: 40] (1.5 nM Final concentration). To this reaction mix 6His tagged (Nickel Chelate) acceptor beads and Streptavidin coated donor beads, both at 10 ug/ml Final concentration, were added.
Assay buffer contained 50 mM Hepes pH 7.4, 10 mM DTT, 100 mM NaCl, 0.05% Tween and 1 mg/ml BSA. Bead dilution buffer contained 50 mM Tris, pH 7.5, 0.01% Tween and 1 mg/ml BSA. The final DMSO concentration in the assay was 1%. Assays were performed in 384 well white Optiplates and analysed on the Perkin Elmer Fusion plate reader (Ex680, Em520-620 […]).

[3] = Circular dichroism, alpha-helical content of peptides; format: physicochemical; conditions: 30% aqueous trifluoroethanol
Description: Circular dichroism spectra were obtained using a Jasco Model J-710 spetropolarimeter at 20° C. using the following parameters: path length, 2 mm; step resolution, 0.1 nm; speed, 20 nm/min; accumulation, 4; response, 1 second; bandwidth, 1.0 nm. The peptides were analysed at a concentration of 0.5 mg/mL in 30% aqueous TFE. The alpha-helical content of the peptides were determined by methods described in Yang et al (1986), involving comparisons of spectra with model helical peptides.

[4] = molecular target: GST tagged Bcl w delta C29 protein (UniProt Q92843); assay: AlphaScreen competition with biotinylated Bim BH3-26 peptide
[5] = substituted 16-mers, Example 9, read-out: IC50 nM Bcl-w ΔC29
[6] = Puma and Bmf peptides, Example 10, read-out: IC50 nM Bcl-w ΔC29
[7] = competition with biotinylated Bim-BH3 peptide, 12-mers, Example 7, read-out: IC50 (nM) Bcl-w ΔC29

Ac-IWAAQEARRAGDEANA-NH2 [M]
IC50 [1, 5]: 64000 nM

Ac-REIGAQLRRMADDLNA-NH2 [Puma]
IC50 [1, 6]: 52 nM

CC[C@H](C)[C@H](NC(C)=O)C(=O)N[C@@H](C)C(=O)N[C@@H](CCC(N)=O)C(=O)N[C@H]1CCC(=O)NCCCCCNC(=O)CC[C@@H](C(=O)N[C@@H](Cc2ccccc2)C(N)=O)NC(=O)[C@H](CC(=O)O)NC(=O)CNC(=O)[C@H]([C@@H](C)CC)NC(=O)[C@H](CCCNC(=N)N)NC(=O)[C@H](CCCNC(=N)N)NC(=O)[C@H](CC(C)C)NC1=O [Peptide B, Acetyl-IAQ(E1)LRRIGD(E2)F-amide] (Ac-IAQELRRIGDEF-NH2; linker 4-11 via NH(CH2)5NH)
affinity for Bcl-2 and Bcl-xL over the unconstrained 12-mer, in words (Bcl-2 ΔC22; compared to the unconstrained 12-mer): outstanding increases in affinity
IC50 (Bcl-2 ΔC22): 290 nM
IC50 [2]: 65 nM
IC50 [1, 7]: 150 nM
% Helicity [3]: 28%

CC[C@H](C)[C@H](NC(C)=O)C(=O)N[C@@H](Cc1c[nH]c2ccccc12)C(=O)N[C@H](C(=O)N[C@@H](C)C(=O)N[C@@H](CCC(N)=O)C(=O)N[C@@H](CCC(=O)O)C(=O)N[C@@H](CC(C)C)C(=O)N[C@@H](CCCNC(N)=O)C(=O)N[C@@H](CCCNC(N)=O)C(=O)N[C@H](C(=O)NCC(=O)N[C@@H](CC(=O)O)C(=O)N[C@@H](CCC(=O)O)C(=O)N[C@@H](Cc1ccccc1)C(=O)N[C@@H](CC(N)=O)C(=O)N[C@@H](C)C(N)=O)[C@@H](C)CC)[C@@H](C)CC [Peptide T] (Ac-IWIAQEL[Cit][Cit]IGDEFNA-NH2)
IC50 [1, 5]: 20 nM

Ac-IWIAQELRRAGDEFNA-NH2 [Peptide K]
decrease in binding affinity [1]: 3 fold
IC50 [1, 5]: 7.3 nM

Ac-IWIAQELRRIGDEFAN-NH2 [Peptide R]
IC50 [1, 5]: 12 nM

Ac-AWIAQELRRIGDEFNA-NH2 [O]
change in binding affinity, in words [1]: drop in binding
IC50 [1, 5]: 22 nM

Ac-IAQELRRIGDEF-NH2 [Linear 12mer, reference compound]
IC50 (Bcl-2 ΔC22): 240000 nM
IC50 [2]: 870 nM
IC50 [1, 7]: 4700 nM
% Helicity [3]: 9%

Ac-IFIAQELRRIGDEFNA-NH2 [N]
change in binding affinity, in words [1]: drop in binding
IC50 [1, 5]: 11 nM

Ac-IRIAQELRRIGDEFNA-NH2 [Q]
change in binding affinity, in words [1]: drop in binding
IC50 [1, 5]: 17 nM

Ac-IAIAQELRRIGDEFNA-NH2 [P]
change in binding affinity, in words [1]: drop in binding
IC50 [1, 5]: 42 nM

CC[C@H](C)[C@H](NC(C)=O)C(=O)N[C@@H](C)C(=O)N[C@@H](CCC(N)=O)C(=O)N[C@H]1CCC(=O)NCC(=O)NCCNC(=O)CC[C@@H](C(=O)N[C@@H](Cc2ccccc2)C(N)=O)NC(=O)[C@H](CC(=O)O)NC(=O)CNC(=O)[C@H]([C@@H](C)CC)NC(=O)[C@H](CCCNC(=N)N)NC(=O)[C@H](CCCNC(=N)N)NC(=O)[C@H](CC(C)C)NC1=O [D] (Ac-IAQELRRIGDEF-NH2; linker 4-11 via X1)
IC50 (Bcl-2 ΔC22): 6900 nM
IC50 [2]: 40 nM
IC50 [1, 7]: 160 nM
% Helicity [3]: 16%

Ac-IWIAQELRRIGDEFAA-NH2 [Peptide S]
change in binding affinity, in words [1]: only slight, if any, loss of binding affinity
IC50 [1, 5]: 3.3 nM

CC[C@H](C)[C@H](NC(=O)[C@@H]1CCC(=O)NCCCCCNC(=O)CC[C@H](NC(C)=O)C(=O)N[C@@H]([C@@H](C)CC)C(=O)N[C@@H](C)C(=O)N[C@@H](CCC(N)=O)C(=O)N[C@@H](CCC(=O)O)C(=O)N[C@@H](CC(C)C)C(=O)N[C@@H](CCCNC(=N)N)C(=O)N1)C(=O)NCC(=O)N[C@@H](CC(=O)O)C(=O)N[C@@H](CCC(=O)O)C(=O)N[C@@H](Cc1ccccc1)C(N)=O [A, Ac-E-IAQELR-E-IGDEF-NH2] (Ac-EIAQELREIGDEF-NH2; linker 1-8 via NH(CH2)5NH)
IC50 (Bcl-2 ΔC22): 26000 nM
IC50 [2]: 2600 nM
IC50 [1, 7]: 1800 nM
% Helicity [3]: 33%

Ac-IWIAQEARRIGDEFNA-NH2 [Peptide J]
decrease in binding affinity [1]: about 1000 fold
IC50 [1, 5]: 3700 nM

CC[C@H](C)[C@H](NC(=O)[C@H](C)NC(=O)[C@H](CCC(N)=O)NC(C)=O)C(=O)N[C@@H](C)C(=O)N[C@@H](CCC(N)=O)C(=O)N[C@H]1CCC(=O)NCCCCCNC(=O)CC[C@@H](C(=O)N[C@@H](Cc2ccccc2)C(=O)N[C@@H](CC(N)=O)C(=O)N[C@@H](C)C(N)=O)NC(=O)[C@H](CC(=O)O)NC(=O)CNC(=O)[C@H]([C@@H](C)CC)NC(=O)[C@H](CCCNC(=N)N)NC(=O)[C@H](CCCNC(=N)N)NC(=O)[C@H](CC(C)C)NC1=O [Peptide G, Ac-QAIAQZLRRIGDZFNA-NH2] (Ac-QAIAQELRRIGDEFNA-NH2; linker 6-13 via NH(CH2)5NH)
IC50 [1]: 2.4 nM

Ac-IWIAQELRRIGDEFNA-NH2 [linear 16-mer, reference compound]
IC50 ([1]; competition with biotinylated BIM-BH3 peptide, 16-mers, Example 8, read-out: IC50 (nM) Bcl-w ΔC29): 2.5 nM

Ac-IWIAQELRRIGDEANA-NH2 [Peptide L]
decrease in binding affinity [1]: 1,000 fold
IC50 [1, 5]: 3500 nM

Ac-IWIAQELRRIGDEFNN-NH2 [Peptide U]
decrease in binding affinity [1]: two
IC50 [1, 5]: 5.8 nM

CC[C@H](C)[C@H](NC(C)=O)C(=O)N[C@@H](Cc1c[nH]c2ccccc12)C(=O)N[C@H](C(=O)N[C@@H](C)C(=O)N[C@@H](CCC(N)=O)C(=O)N[C@H]1CCC(=O)NCCCCCNC(=O)CC[C@@H](C(=O)N[C@@H](Cc2ccccc2)C(=O)N[C@@H](CC(N)=O)C(=O)N[C@@H](C)C(N)=O)NC(=O)[C@H](CC(=O)O)NC(=O)CNC(=O)[C@H]([C@@H](C)CC)NC(=O)[C@H](CCCNC(=N)N)NC(=O)[C@H](CCCNC(=N)N)NC(=O)[C@H](CC(C)C)NC1=O)[C@@H](C)CC [E] (Ac-IWIAQELRRIGDEFNA-NH2; linker 6-13 via NH(CH2)5NH)
IC50 ([1]; values repeated in text, read-out: binding of the constrained peptide to Bcl-w): 0.5 nM

Ac-IWAAQELRRIGDEFNA-NH2 [Peptide I]
change in binding affinity, in words [1]: slight decrease in binding affinity
decrease in binding affinity [1]: 100 fold
IC50 [1, 5]: 360 nM

Ac-IWIAQQLRRIGDQFNA-NH2 [H]
IC50 [1, 5]: 3.3 nM

Ac-VQIARKLQAIADQFHR-NH2 [Bmf]
IC50 [1, 6]: 0.25 nM

Ac-IWIAQELRRIGDEFNN-NH2 [Peptide U (linear), Ac-…-NH2]
fold loss of binding affinity (against the linear 16-mer) [4]: 2 fold

Ac-IWIAQELRRIGDEANA-NH2 [Peptide L (linear), Ac-…-NH2]
fold decrease in affinity (against the linear 16-mer) [4]: 1000 fold

Ac-IWAAQEARRAGDEANA-NH2 [Peptide M (linear), Ac-…-NH2]
fold decrease in binding affinity (against the linear 16-mer) [4]: 25000 fold

Ac-IWIAQEARRIGDEFNA-NH2 [Peptide J (linear), Ac-…-NH2]
fold decrease in affinity (against the linear 16-mer) [4]: 1000 fold

Ac-IWAAQELRRIGDEFNA-NH2 [Peptide I (linear), Ac-…-NH2]
fold decrease in binding affinity (against the linear 16-mer) [4]: 100 fold

Ac-IWIAQELRRAGDEFNA-NH2 [Peptide K (linear), Ac-…-NH2]
fold decrease in affinity (against the linear 16-mer) [4]: 3 fold
